# Patent publication US20050215548A1 (Cyclacel Limited, priority 2002, published 2005)
# pIC50: −log10 of the molar value. Residues, ends and D or L forms follow the SMILES beside them. *: point of attachment. Cbz = O=C(OCc1ccccc1)*; CH2F = FC*
# How the values were obtained:
# HDM2 = target: T1, HDM2 (Homo sapiens, UniProt Q00987); assay: Fluorescence polarisation competitive HDM2 binding assay; conditions: text of Example 10, refer Table 1; read-out: competitive inhibition IC50
# T1 construct: Recombinant HDM2 (1.5 μg per well) in TBS-BSA buffer
# T1 sequence (Q00987 whole entry): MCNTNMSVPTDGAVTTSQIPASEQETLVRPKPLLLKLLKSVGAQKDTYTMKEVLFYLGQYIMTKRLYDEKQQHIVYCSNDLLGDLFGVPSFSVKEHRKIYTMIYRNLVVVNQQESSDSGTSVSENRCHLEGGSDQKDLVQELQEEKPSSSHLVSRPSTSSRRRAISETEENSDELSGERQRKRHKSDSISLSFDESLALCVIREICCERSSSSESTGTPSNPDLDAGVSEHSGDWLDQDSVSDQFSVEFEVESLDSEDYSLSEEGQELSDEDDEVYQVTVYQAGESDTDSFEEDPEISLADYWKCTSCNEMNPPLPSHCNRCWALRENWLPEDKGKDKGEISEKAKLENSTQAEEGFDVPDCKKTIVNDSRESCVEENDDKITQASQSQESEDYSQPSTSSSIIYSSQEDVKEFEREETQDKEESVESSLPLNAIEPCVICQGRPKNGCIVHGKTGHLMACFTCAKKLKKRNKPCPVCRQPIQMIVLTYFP
# Outline: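 Recombinant HDM2 (1.5 μg/well) was preincubated 5 min at room temperature with serially diluted compound in 50 mM Tris pH 7.4, 150 mM NaCl, 0.1% BSA, 5% DMSO final. Fluorescein-labelled p53 peptide (0.2 μM) was then added for 45 min. Polarisation was read at 485/520 nm and IC50 derived from dose-response curves.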
# AGS = assay: 72-h MTT cytotoxicity assay, AGS; format: cell-based; conditions: Homo sapiens, 72-h MTT, Table 1, read-out: IC50 Anti-proliferative effect on cell line AGS
# Outline: (§1)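 Bisarylsulfonamides are applied to human cancer cells and growth inhibition is read by MTT. H1299 lung carcinoma lacks p53 and expresses little HDM2, SJSA-1 osteosarcoma-type cells are p53 wild-type with high HDM2, and AGS gastric cells retain wild-type p53.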
# H1299 = assay: 72-h MTT cytotoxicity assay, H1299; format: cell-based; conditions: Homo sapiens, NCI-H1299; 72-h MTT; Table 1; read-out: IC50 Anti-proliferative effect on cell line H 1299
# Outline: as §1
# SJSA-1 = assay: 72-h MTT cytotoxicity assay, SJSA-1; format: cell-based; conditions: Homo sapiens, SJSA-1; 72-h MTT; Table 1; read-out: IC50 Anti-proliferative effect on cell line SJSA-1
# Outline: as §1
# [1] = tested on: key proteins in the HDM2 pathway; assay: SDS-PAGE and immunoblotting of key proteins in the HDM2 pathway; format: cell-based, human
# Source text: Equal amounts of cell lysate were separated by SDS-PAGE and analysed by immunoblotting using the indicated antibodies. An estimation of the extent of cell rounding is indicated above each lane. […] (B) The effect of compound 2 on the levels of the cell cycle proteins in AGS cells (wild-type 53). […] Equal amounts of cell lysate were separated by SDS-PAGE and analysed by immunoblotting using the indicated antibodies. An estimation of the extent of cell rounding is indicated above each lane. (C) The effect of negative control compound (refer Example 10), compound 2, cisplatin, and anisomycin on the levels of key proteins in MCF7 cells. […] Cisplatinum and anisomycin (a transcription inhibitor) treatments were with 50 μM or 37 μM, respectively. Cells were harvested at various time points; afterwards lysates were prepared and separated by SDS-PAGE and analysed by immunoblotting. The proteins detected are indicated. The extent of rounded or floating cells and the percentage viable cells were assessed. […] Equal amounts of cell lysate were separated by SDS-PAGE and analysed by immunoblotting using a range of antibodies. An estimation of the extent of cell rounding is indicated above each lane. […] SJSA1 cells were treated with 5 times [IC50] of compound 2 and collected at the indicated time points. Equal amounts of cell lysate were separated by SDS-PAGE and analysed by immunoblotting using a range of antibodies. An estimation of the extent of cell rounding is indicated above each lane.
# Many types of cellular stress converge on the p53 pathway and induce its activity. […] The biological effect of bisarylsufonamides on cellular level was studies using representative compounds (mainly compound 2) and number of cell lines with different HDM2 and p53 status. These were overexpressing Hdm2 (SJSA1—osteosarcoma), wild type p53 and normal levels of HDM2 (AGS—gastric adenocarcinoma, MCF7—breast adenocarcinoma), or p53 null, low levels of HDM2 (H1299—large cell lung carcinoma).
# Cells were lysed and equal amounts were analysed by SDS-polyacrylamide gel electrophoresis (SDS-PAGE) and immunoblotting.
# [2] = tested on: AGS, H1299, MCF7 or SJSA1 cells; assay: Cell morphology (cell rounding); format: cell-based, human; conditions: five times IC50
# Source text: Equal amounts of cell lysate were separated by SDS-PAGE and analysed by immunoblotting using the indicated antibodies. An estimation of the extent of cell rounding is indicated above each lane. The arrow indicates the position of a 85-kDa cleavage product of PARP, indicative of apoptosis. (B) The effect of compound 2 on the levels of the cell cycle proteins in AGS cells (wild-type 53). […] Equal amounts of cell lysate were separated by SDS-PAGE and analysed by immunoblotting using the indicated antibodies. An estimation of the extent of cell rounding is indicated above each lane. (C) The effect of negative control compound (refer Example 10), compound 2, cisplatin, and anisomycin on the levels of key proteins in MCF7 cells. […] Cisplatinum and anisomycin (a transcription inhibitor) treatments were with 50 μM or 37 μM, respectively. Cells were harvested at various time points; afterwards lysates were prepared and separated by SDS-PAGE and analysed by immunoblotting. The proteins detected are indicated. The extent of rounded or floating cells and the percentage viable cells were assessed. […] Equal amounts of cell lysate were separated by SDS-PAGE and analysed by immunoblotting using a range of antibodies. An estimation of the extent of cell rounding is indicated above each lane. […] SJSA1 cells were treated with 5 times [IC50] of compound 2 and collected at the indicated time points. Equal amounts of cell lysate were separated by SDS-PAGE and analysed by immunoblotting using a range of antibodies. An estimation of the extent of cell rounding is indicated above each lane.
# Cells were treated with 5 times [IC50] of compound 2 and collected at various time points. The percentage of rounded cells was counted before cells were trypsinised and counted for cell viability using trypan blue.
# Cells were lysed and equal amounts were analysed by SDS-polyacrylamide gel electrophoresis (SDS-PAGE) and immunoblotting. […] The reduction in E2F-1 levels correlated with reduction in E2F transcriptional activity as determined by an E2F-dependent luciferase reporter assay (refer Example 6).
# AGS cells = assay: Caspase activity (casp ACE assay), AGS; format: cell-based, human; conditions: 24 hours
# Protocol: In more detail: (A) Cells were treated with […] [IC50] of compound 2 or cisplatinum and collected at the time points indicated. Cell lysates were prepared, the caspase activity was determined using the casp ACE assay and values were plotted on a graph. (B) Cells were treated with 5 times [IC50] of compound 2 or cisplatinum and collected at the time points indicated. AGS cells were also incubated with compound 2 in the presence of a caspase inhibitor Z-VAD.fmk. Cell lysates were prepared, the caspase activity was determined using the casp ACE assay and values were plotted on a graph.
# To characterise the apoptosis-inducing properties of bisarylsulfonamides caspase ⅓ activty was measured. AGS or H1299 cells were treated with a low concentration of compound 2 or cisplatin corresponding to twice the IC50 value (FIG. 6A). Morphological changes were detected in 10-20% of cells by 72 hours corresponding to an induction of caspase activity first detected at 48 hours, increasing by 72 hours. We also treated AGS and H1299 cells with higher concentrations corresponding to five times the IC50 (FIG. 6B). In this experiment we included a […], Z-VAD.fmk to determine the caspase responsible.
pIC50 (HDM2),Structure (SMILES),pIC50 (AGS),pIC50 (H1299),pIC50 (SJSA-1),"PARP cleavage / PARP levels ([1]; five times IC50, 85-kDa cleavage product marker for apoptosis)","changes in protein levels and cell morphology ([1]; negative control: MCF7, 13.5 μM, 68/69: MCF7 and H1299 at five times IC50 of 69, 49: AGS, SJSA1, H1299)",cell rounding [2],caspase activity induced by compound 2 in presence of caspase inhibitor (AGS cells)
3.82,"O=[N+]([O-])c1csc(S(=O)(=O)Nc2ccc(Cl)cc2)c1 [Compound 69, 4-Nitro-thiophene-2-sulfonic acid (4-chloro-phenyl)-amide]",4.72,4.52,4.55,Rapid reduction in PARP levels,induced changes in both morphology and protein levels,No rapid cell rounding,
,"COC(=O)C[C@H](NC(=O)[C@H](C)NC(=O)[C@@H](NC(=O)OCc1ccccc1)C(C)C)C(=O)CF [Z-VAD.fmk, reference compound] (Cbz-Val-Ala-Asp(OMe)-CH2F)",,,,,,,reduced the caspase activity to background levels
